Test system: Primary sebocytes
Assay: Lipid reduction in primary sebocytes, AdipoRed dye, mean fluorescence intensity by flow cytometry
Type: cell-based, human
Settings: primary sebocytes incubated 3 days, 10 μM for the compound, 31.25 μg/mL for the extract, average of 10,000 cells
Protocol: Primary sebocytes were derived from the forehead of a person. The same cell line was used in all experiments. Flow cytometry experiments were conducted on the BD LSR Fortessa X-20 as follows: Sebocytes stained with a lipid dye (AdipoRed™) were first analyzed according to size and granularity with only single cells selected for AdipoRed™ signal intensity measurement. […] Cells treated with compositions of the invention were compared to vehicle-treated cells to determine the percentage of lipid reduction. […] The cells were washed with PBS buffer [5 mL for a 10 cm culture plate] and then incubated at 37° C. with 0.125% Trypsin-EDTA (Gibco, 15400054) [2 mL of Trypsin for a 10 cm culture plate] for 5-10 minutes. […] When all cells had detached, fixative solution (250 μL; […] The tubes were stored on ice before flow cytometry. Mean fluorescence intensity of the lipid signal can be obtained from the flow cytometer plot which are used to determine the inhibitory effect of the compounds on the sebocytes. The lipid reduction effects of the compositions of the invention were measured against DMSO as a negative control, and against the known lipid-reducing compounds epigallocatechin gallate (EGCG) and salicylic acid (SA) as positive controls. The results are shown in Table 3 and FIGS. 1 to 7.

O=C(O[C@@H]1Cc2c(O)cc(O)cc2O[C@@H]1c1cc(O)c(O)c(O)c1)c1cc(O)c(O)c(O)c1 [EGCG, epigallocatechin gallate]
Percentage Reduction in Mean Fluorescence Intensity (Against DMSO Control): 13.4%

Reference: patent publication US20250352445A1, “COMPOSITIONS FOR SEBUM CONTROL” (Dyson Operations Pte. Ltd., priority 2022, published 2025)
